Experimental data: PMC10006169, “A phase I trial of LXS196, a protein kinase C (PKC) inhibitor, for metastatic uveal melanoma” (British Journal of Cancer, 2023)

Assays:
RasGRP3, DUSP6 = assay: RNAseq gene expression in tumour biopsies; assay type: in vivo, human
Protocol: Detailed DNA and RNA extraction methods and analysis are described in the supplementary appendix.
RNA libraries were prepared for RNAseq as previously described. Briefly, the total RNA was depleted of ribosomal RNA (rRNA), fragmented, converted to cDNA, and then the next generation sequencing (NGS) library was constructed using the TruSeq RNA v2 Library Preparation Kit (Illumina) with end repair, A-tailing, indexed adaptor ligation and PCR amplification steps. Sequence reads were aligned with STAR [12] to the hg19 human reference genome, and read counts of coding regions were summarised by HTSeq using a reference transcriptome of human Refseq transcripts.

[1] = tested on: UM cell lines containing mutant GNAQ or GNA11; settings: cited from earlier work

In the case of `CC1(N)CCN(c2cccnc2NC(=O)c2nc(-c3ncccc3C(F)(F)F)cnc2N)CC1` [LXS196], the “MAPK pathway activity as measured by DUSP6 expression” value (RasGRP3, DUSP6) is given as “trend towards suppression in the PR group”, the “RasGRP3 expression on treatment” value (RasGRP3, DUSP6; C1D15, QD and BID) is given as “decreased in some patients” and the Cellular activity [1] is given as “cellular activity restricted to UM cell lines containing mutant GNAQ or GNA11”.
